{"source": "patent US10265287B2", "about": "“Methods of reducing triglycerides and LDL-C” (Amarin Pharmaceuticals Ireland Limited, priority 2009, dated 2019)", "assay": "Lipid peroxide (LOOH) formation in model membranes, CHOD-iodide colorimetric assay", "format": "biochemical", "conditions": "cholesterol-enriched membranes", "description": "An experiment was conducted to test EPA, DHA, EPA+DHA with and without with atorvastatin in model membranes enriched with PUFAs and cholesterol at levels that reproduce disease or high CV-risk conditions (i.e. hypercholesterimia). […] EPA and DHA were tested individually at a fixed concentration of 10.0 uM or in combination at 5.65 μM and 4.35 μM (EPA and DHA, respectively), which is a mole ratio of 1.3:1. Separate and combined effects of these agents on lipid peroxide (LOOH) formation were examined at cholesterol-to-phospholipid (C/P) mole ratios of 0.5:1, 1.0:1 and 1.5:1. Levels of lipid hydroperoxides were also measured for EPA, DPH and EPA/DPH in cholesterol-enriched membrane prepared in the absence and presence of atorvastatin. […] To ensure spectrophotometric readings within the optimum absorbance range, sample volumes taken for measurement of lipid peroxide formation were adjusted for length of peroxidation and range between 100 and 10 μl. […] Absorbances were measured against a CHOD blank at 365 nm using a Beckman DU-640 spectrophotometer. The CHOD colorimetric assay is based on the oxidation of iodide (I^-) by lipid hydroperoxides (LOOH) and proceeds according to the following reaction scheme: […]3^- The quantity of triiodide anion (I3^-) liberated in this reaction is directly proportional to the amount of lipid hydroperoxides present in the membrane sample. […]", "data": [{"compound": "CCC=CCC=CCC=CCC=CCC=CCCCC(=O)O", "note": "[EPA, eicosa-5,8,11,14,17-pentaenoic acid]", "values": [{"measurement": "antioxidant benefit compared with DHA", "setting": "EPA and DHA each tested at 10.0 uM", "value": "superior to that observed with DHA"}, {"measurement": "antioxidant benefit (lipid peroxide (LOOH) formation)", "setting": "autoxidation at 37° C., EPA tested at 10.0 uM", "value": "potent antioxidant benefit"}]}]}
